Results published in paper PMC10787880, “Structural and functional characterization of a new thermophilic-like OYE from Aspergillus flavus” (Applied Microbiology and Biotechnology, 2024).

Target: T1, AfOYE1 (Aspergillus flavus, UniProt B8N8Q9)
T1 construct: gene afvA; codon-optimised gene in pET28b, E. coli BL21(DE3); N-terminal His6-TEV tag, cut by TEV protease; about 43 kDa; dimer in the crystal; non-covalent FMN
Test: X-ray crystal structure […] Å; UV-visible spectrum of released flavin
Format: binding
Settings: non-covalent prosthetic group, active site; chloride and ethylene glycol also in site

T1 sequence (B8N8Q9 whole entry): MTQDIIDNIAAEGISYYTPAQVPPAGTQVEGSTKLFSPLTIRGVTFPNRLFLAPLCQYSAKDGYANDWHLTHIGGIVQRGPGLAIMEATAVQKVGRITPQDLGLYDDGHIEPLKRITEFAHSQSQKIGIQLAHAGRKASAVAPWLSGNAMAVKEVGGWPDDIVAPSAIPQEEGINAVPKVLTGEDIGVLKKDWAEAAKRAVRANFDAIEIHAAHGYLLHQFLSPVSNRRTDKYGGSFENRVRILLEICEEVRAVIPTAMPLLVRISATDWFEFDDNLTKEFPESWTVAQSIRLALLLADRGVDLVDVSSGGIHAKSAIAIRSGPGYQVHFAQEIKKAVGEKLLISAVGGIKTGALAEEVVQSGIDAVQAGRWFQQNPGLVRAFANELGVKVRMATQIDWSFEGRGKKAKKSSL

Cc1cc2nc3c(=O)[nH]c(=O)nc-3n(C[C@H](O)[C@H](O)[C@H](O)COP(=O)(O)O)c2cc1C [FMN]
X-ray crystal structure 1.55 Å; UV-visible spectrum of released flavin: On the top of the β-barrel core of each monomer encircles one FMN cofactor
